Results published in paper PMC9027920, “Development of New Thiophene-Containing Triaryl Pyrazoline Derivatives as PI3Kγ Inhibitors” (Molecules, 2022).

Assays:
PI3Kα = molecular target: T1, PI3Kα (Homo sapiens, UniProt P42336); assay: competitive fluorescence polarization kinase activity assay, PI3Kα; assay type: biochemical; conditions: fluorescence polarization kinase kit
T1 construct: purchased Perkin–Elmer
Description: (§1) Initially, we directly tested the inhibition potency of the synthesized compounds on PI3K by using competitive fluorescence polarization kinase kits, as mentioned in previous investigations. […] According to the significance and research maturity of the isoforms as referenced, the PI3Kα and PI3Kγ isoforms were preliminarily included here.
(§2) The competitive fluorescence polarization kinase activity assay was used to test the inhibition potency on PI3K, as mentioned in previous investigations. In general, following the instruction of the Kit (Perkin–Elmer, Waltham, MA, USA), the 10 μL scale of PI3K activity reaction was conducted with the substrate diC8-PI(4,5)P2 in a solution containing 2.5 mM MgCl2, 5 mM HEPES, […] and 10 mM DTT at pH 7.0. Into the 10 μL reaction wells with 50 ng enzyme and […], different concentrations of the tested compounds were added, respectively. The mixture was incubated at room temperature for 3 h, and the reactions were then quenched. Afterwards, the phosphoinositide binding protein and the fluorescent dye-labeled phosphoinositide tracer were added in sequence. In the dark environment in 384-well black nonbinding plates (Corning, Corning, NY, USA), the further incubation lasted for 1 h. With appropriate filters, the polarization values of the corresponding dye were recorded to calculate the enzymatic activity of PI3K in this reacting procedure. This assay was universal for evaluating the activity of different PI3K isoforms.

PI3Kγ = molecular target: T2, PI3Kγ (Homo sapiens, UniProt P48736); assay: competitive fluorescence polarization kinase activity assay, PI3Kγ; assay type: biochemical; conditions: for IC50: fluorescence polarization kinase kit; for selectivity index: ratio of the IC50 values for PI3Kα and PI3Kγ
T2 construct: purchased Perkin–Elmer
Description: as §1, §2

[1] = cytotoxicity, MTT, L02 cells; assay type: cell-based; conditions: human, L02 cells (human normal hepatocyte line)
Protocol: (§3) In this section, the anti-proliferation activity of the synthesized compounds 3a–3t was evaluated. Herein, HeLa (human epithelial cervical cancer cell line), HepG2 (human hepatoellular carcinoma cell line) and L02 (human normal hepatocyte line) cells were used. According to the affection on L02 cells, most of the tested compounds were low-toxic. […] Basically, many of the compounds in this series could inhibit the growth of HeLa and HepG2 cells effectively. The anti-proliferation inhibitory activity and the enzymatic inhibition potency indicated the consistent tendencies; the SAR of the observed anti-proliferation activity was also similar to that of the enzymatic inhibition, especially that of PI3Kγ inhibition; thus, the cellular inhibition might be caused by the effect on PI3K. […] Thus, HepG2 cells were selected to conduct further investigations at the protein level.
(§4) In this section, the cells included HeLa (human epithelial cervical cancer cell line), HepG2 (human hepatocellular cancer cell line) and L02 (human normal hepatocyte line) to evaluate the anti-proliferation activity of the synthesized compounds. The cells were cultured in Dulbecco’s modified eagle medium (DMEM, Hyclone) with the addition of 10% fetal bovine serum (FBS, BI), 2 mmol/L L-glutamine, 100 units/mL penicillin-streptomycin (Sigma-Aldrich, Saint Louis, MO, USA), […] (Hyclone, Logan, UT, USA). The environment was 5% CO2 contained atmosphere at 37 °C. The tests of anti-proliferative activity were conducted under a standard method with the typical dye 3-(4,5-dimethylthiazol-2-yl)-2,5-diphenyltetrazolium bromide (MTT) in triplicate. The LX300 Epson Diagnostic micro-plate reader (Nagano, Japan) was used to record the absorbance at 570 nm (OD570).

[2] = test system: HeLa (human epithelial cervical cancer cell line) cells; assay: anti-proliferation assay, MTT, HeLa cells; assay type: cell-based
Protocol: as §3, §4

[3] = test system: HepG2 (human hepatocellular cancer cell line) cells; assay: anti-proliferation assay, MTT, HepG2 cells; assay type: cell-based; conditions: read-out: GI50 HepG2γ
Protocol: as §3, §4

T1 sequence (P42336 whole entry, species assumed): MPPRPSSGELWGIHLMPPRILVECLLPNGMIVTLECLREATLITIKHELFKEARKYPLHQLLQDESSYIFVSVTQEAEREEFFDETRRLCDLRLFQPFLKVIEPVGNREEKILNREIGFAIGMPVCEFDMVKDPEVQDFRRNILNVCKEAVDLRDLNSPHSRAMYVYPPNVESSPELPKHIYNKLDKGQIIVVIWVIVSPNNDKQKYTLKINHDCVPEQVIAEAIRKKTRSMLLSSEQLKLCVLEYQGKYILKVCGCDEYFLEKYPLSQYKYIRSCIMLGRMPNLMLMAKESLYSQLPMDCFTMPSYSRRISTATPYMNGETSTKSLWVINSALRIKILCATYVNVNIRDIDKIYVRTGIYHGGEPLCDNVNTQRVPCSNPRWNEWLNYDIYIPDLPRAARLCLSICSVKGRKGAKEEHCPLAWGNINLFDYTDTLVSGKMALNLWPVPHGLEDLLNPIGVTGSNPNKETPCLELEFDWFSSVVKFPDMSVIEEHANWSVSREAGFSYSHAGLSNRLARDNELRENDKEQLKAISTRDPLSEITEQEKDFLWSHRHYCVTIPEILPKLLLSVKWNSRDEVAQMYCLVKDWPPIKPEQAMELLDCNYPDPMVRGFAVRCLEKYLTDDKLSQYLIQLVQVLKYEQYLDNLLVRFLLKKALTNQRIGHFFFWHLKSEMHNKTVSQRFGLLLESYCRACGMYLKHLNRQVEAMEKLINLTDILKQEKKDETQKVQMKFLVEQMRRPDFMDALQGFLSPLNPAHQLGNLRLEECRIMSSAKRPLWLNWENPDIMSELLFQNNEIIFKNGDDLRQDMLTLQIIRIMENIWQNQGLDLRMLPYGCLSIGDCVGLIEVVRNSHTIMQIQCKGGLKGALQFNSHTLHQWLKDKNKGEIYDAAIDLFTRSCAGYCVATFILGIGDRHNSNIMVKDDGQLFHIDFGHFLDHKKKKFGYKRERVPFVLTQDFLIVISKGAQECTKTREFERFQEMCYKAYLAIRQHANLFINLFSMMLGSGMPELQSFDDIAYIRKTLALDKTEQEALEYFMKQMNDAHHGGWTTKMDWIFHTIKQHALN
T1 sequence (P27986 whole entry partner, species assumed): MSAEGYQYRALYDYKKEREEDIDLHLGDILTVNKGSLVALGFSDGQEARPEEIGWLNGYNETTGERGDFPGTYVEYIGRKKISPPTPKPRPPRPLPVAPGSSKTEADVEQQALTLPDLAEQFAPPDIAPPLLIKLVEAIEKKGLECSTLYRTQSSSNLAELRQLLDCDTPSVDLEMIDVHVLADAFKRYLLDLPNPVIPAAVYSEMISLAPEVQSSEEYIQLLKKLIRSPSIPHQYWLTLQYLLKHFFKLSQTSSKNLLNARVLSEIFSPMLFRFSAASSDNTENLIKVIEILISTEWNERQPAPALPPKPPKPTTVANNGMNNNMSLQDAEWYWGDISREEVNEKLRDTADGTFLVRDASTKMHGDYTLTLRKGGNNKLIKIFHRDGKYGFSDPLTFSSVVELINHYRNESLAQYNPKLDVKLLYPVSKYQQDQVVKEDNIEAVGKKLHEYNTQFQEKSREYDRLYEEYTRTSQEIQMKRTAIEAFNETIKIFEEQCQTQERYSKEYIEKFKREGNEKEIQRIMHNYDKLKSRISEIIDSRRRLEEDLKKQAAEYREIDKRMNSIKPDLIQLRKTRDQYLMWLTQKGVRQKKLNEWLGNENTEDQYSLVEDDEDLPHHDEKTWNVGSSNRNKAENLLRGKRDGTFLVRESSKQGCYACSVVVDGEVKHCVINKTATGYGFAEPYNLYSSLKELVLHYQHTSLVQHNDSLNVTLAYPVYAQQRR
T2 sequence (P48736 whole entry, species assumed): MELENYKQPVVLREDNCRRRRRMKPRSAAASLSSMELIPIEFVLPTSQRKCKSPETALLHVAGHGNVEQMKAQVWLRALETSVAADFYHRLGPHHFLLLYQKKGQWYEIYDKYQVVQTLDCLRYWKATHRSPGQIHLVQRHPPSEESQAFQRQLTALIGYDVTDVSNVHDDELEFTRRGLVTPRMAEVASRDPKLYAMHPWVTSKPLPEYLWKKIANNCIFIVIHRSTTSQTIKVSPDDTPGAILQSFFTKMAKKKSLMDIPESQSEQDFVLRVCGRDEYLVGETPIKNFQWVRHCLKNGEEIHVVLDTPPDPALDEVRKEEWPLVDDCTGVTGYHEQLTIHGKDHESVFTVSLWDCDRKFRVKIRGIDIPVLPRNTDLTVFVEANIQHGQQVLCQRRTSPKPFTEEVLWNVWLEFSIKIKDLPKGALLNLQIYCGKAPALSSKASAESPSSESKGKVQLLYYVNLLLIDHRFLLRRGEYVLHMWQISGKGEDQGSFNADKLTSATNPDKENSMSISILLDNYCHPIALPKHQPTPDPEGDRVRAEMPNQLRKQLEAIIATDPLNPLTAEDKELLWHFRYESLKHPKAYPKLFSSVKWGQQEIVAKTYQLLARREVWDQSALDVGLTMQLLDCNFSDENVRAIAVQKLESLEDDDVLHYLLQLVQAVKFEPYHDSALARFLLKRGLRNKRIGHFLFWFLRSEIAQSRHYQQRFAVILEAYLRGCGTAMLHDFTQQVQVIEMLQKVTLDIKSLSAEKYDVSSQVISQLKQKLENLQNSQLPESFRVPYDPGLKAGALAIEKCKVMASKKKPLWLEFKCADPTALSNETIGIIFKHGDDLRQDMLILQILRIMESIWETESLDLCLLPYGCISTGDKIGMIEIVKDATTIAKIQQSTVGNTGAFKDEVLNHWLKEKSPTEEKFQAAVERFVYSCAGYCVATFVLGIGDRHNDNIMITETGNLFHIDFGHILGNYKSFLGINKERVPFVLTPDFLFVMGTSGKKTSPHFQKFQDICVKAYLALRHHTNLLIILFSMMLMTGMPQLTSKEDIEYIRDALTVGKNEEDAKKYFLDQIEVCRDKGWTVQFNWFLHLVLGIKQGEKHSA

IC50 (PI3Kα) [µM] | IC50 (PI3Kγ) [µM] | GI50 [2] [µM] | GI50 [3] [µM] | melting point [°C] | selectivity index (PI3Kγ) | Structure (SMILES) | CC50 [1] [µM]
> 100 | 7.48 ± 0.22 | 109 ± 5.8 | 61.1 ± 3.2 | 141 to 143 | – | COc1ccc(C(=O)N2N=C(c3ccccc3)CC2c2cccs2)cc1OC (centres unmarked) [3a, (3,4-Dimethoxyphenyl)(3-phenyl-5-(thiophen-2-yl)-4,5-dihydro-1H-pyrazol-1-yl)methanone] | 174 ± 10
> 100 | 4.43 ± 0.2 | 77.9 ± 3.9 | 50.2 ± 1.6 | 118 to 120 | – | COc1ccc(C(=O)N2N=C(c3ccccc3F)CC2c2cccs2)cc1OC (centres unmarked) [3b, (3,4-Dimethoxyphenyl)(3-(2-fluorophenyl)-5-(thiophen-2-yl)-4,5-dihydro-1H-pyrazol-1-yl)methanone] | 152 ± 9.5
30.9 ± 1.3 | 4.21 ± 0.072 | 26.3 ± 1.7 | 20.4 ± 2 | 50 to 51 | – | COc1ccc(C(=O)N2N=C(c3cccc(F)c3)CC2c2cccs2)cc1OC (centres unmarked) [3c, (3,4-Dimethoxyphenyl)(3-(3-fluorophenyl)-5-(thiophen-2-yl)-4,5-dihydro-1H-pyrazol-1-yl)methanone] | 94.5 ± 4.3
78.7 ± 4 | 2.22 ± 0.072 | 57.1 ± 2.6 | 42.6 ± 1.9 | 124 to 126 | – | COc1ccc(C(=O)N2N=C(c3cccc(Br)c3)CC2c2cccs2)cc1OC (centres unmarked) [3d, (3-(3-Bromophenyl)-5-(thiophen-2-yl)-4,5-dihydro-1H-pyrazol-1-yl)(3,4-dimethoxyphenyl)methanone] | 120 ± 4.7
2.08 ± 0.099 | 1.12 ± 0.081 | 5.9 ± 0.2 | 5.51 ± 0.2 | 76 to 78 | – | COc1ccc(C(=O)N2N=C(c3cccc([N+](=O)[O-])c3)CC2c2cccs2)cc1OC (centres unmarked) [3e, (3,4-Dimethoxyphenyl)(3-(3-nitrophenyl)-5-(thiophen-2-yl)-4,5-dihydro-1H-pyrazol-1-yl)methanone] | 58.4 ± 2.6
26.6 ± 1.01 | 0.57 ± 0.044 | 23.7 ± 1.2 | 15.1 ± 0.42 | 53 to 55 | 46.7 | COc1ccc(C2=NN(C(=O)c3ccc(OC)c(OC)c3)C(c3cccs3)C2)cc1 (centres unmarked) [3f, (3,4-Dimethoxyphenyl)(3-(4-methoxyphenyl)-5-(thiophen-2-yl)-4,5-dihydro-1H-pyrazol-1-yl)methanone] | 112 ± 8.3
0.92 ± 0.056 | 26.9 ± 1.4 | 31.6 ± 0.9 | 31.6 ± 1.4 | 60 to 62 | – | COc1ccc(C(=O)N2N=C(c3ccc(OCc4ccccc4)cc3)CC2c2cccs2)cc1OC (centres unmarked) [3g, (3-(4-(Benzyloxy)phenyl)-5-(thiophen-2-yl)-4,5-dihydro-1H-pyrazol-1-yl)(3,4-dimethoxyphenyl)methanone] | 104 ± 5.4
64.4 ± 3.6 | 18.1 ± 1.7 | 61.3 ± 2.3 | 53.3 ± 1.9 | 63 to 65 | – | COc1ccc(C(=O)N2N=C(c3ccc(SC)cc3)CC2c2cccs2)cc1OC (centres unmarked) [3h, (3-(4-((λ^1-Sulfanyl)-λ^5-methyl)phenyl)-5-(thiophen-2-yl)-4,5-dihydro-1H-pyrazol-1-yl) (3,4-dimethoxyphenyl)methanone] | 180 ± 4.6
89.5 ± 3.4 | 3.03 ± 0.085 | 66.6 ± 1.2 | 48.7 ± 1.8 | 165 to 167 | – | COc1ccc(C(=O)N2N=C(c3ccc(C)cc3)CC2c2cccs2)cc1OC (centres unmarked) [3i, (3,4-Dimethoxyphenyl)(5-(thiophen-2-yl)-3-(p-tolyl)-4,5-dihydro-1H-pyrazol-1-yl)methanone] | 151 ± 8.9
3.92 ± 0.064 | > 100 | 75.7 ± 2.9 | 50.6 ± 1 | 154 to 156 | – | COc1ccc(C(=O)N2N=C(c3ccc(-c4ccccc4)cc3)CC2c2cccs2)cc1OC (centres unmarked) [3j, (3-([1,1’-Biphenyl]-4-yl)-5-(thiophen-2-yl)-4,5-dihydro-1H-pyrazol-1-yl)(3,4-dimethoxyphenyl)methanone] | 196 ± 10
1.1 ± 0.061 | 42.7 ± 2.6 | 44.6 ± 2.1 | 46.6 ± 1.3 | 75 to 77 | – | COc1ccc(C(=O)N2N=C(c3ccc(-c4ccc(Br)cc4)cc3)CC2c2cccs2)cc1OC (centres unmarked) [3k, (3-(4’-Bromo-[1,1’-biphenyl]-4-yl)-5-(thiophen-2-yl)-4,5-dihydro-1H-pyrazol-1-yl)(3,4-dimethoxyphenyl)methanone] | 178 ± 8.7
17.1 ± 0.58 | 5.11 ± 0.083 | 20.1 ± 1.7 | 15.5 ± 0.87 | 71 to 73 | – | COc1ccc(C(=O)N2N=C(c3ccc(Br)cc3)CC2c2cccs2)cc1OC (centres unmarked) [3l, (3-(4-Bromophenyl)-5-(thiophen-2-yl)-4,5-dihydro-1H-pyrazol-1-yl)(3,4-dimethoxyphenyl)methanone] | 86.6 ± 3.5
75.6 ± 2.4 | 2.52 ± 0.055 | 57.9 ± 3.6 | 40.1 ± 1.4 | 69 to 71 | – | COc1ccc(C(=O)N2N=C(c3ccc(I)cc3)CC2c2cccs2)cc1OC (centres unmarked) [3m, (3,4-Dimethoxyphenyl)(3-(4-iodophenyl)-5-(thiophen-2-yl)-4,5-dihydro-1H-pyrazol-1-yl)methanone] | 141 ± 5.6
12 ± 1.1 | 1.79 ± 0.049 | 11.1 ± 1.2 | 8.85 ± 0.31 | 149 to 151 | – | COc1ccc(C(=O)N2N=C(c3ccc4ccccc4c3)CC2c2cccs2)cc1OC (centres unmarked) [3n, (3,4-Dimethoxyphenyl)(3-(naphthalen-2-yl)-5-(thiophen-2-yl)-4,5-dihydro-1H-pyrazol-1-yl)methanone] | 62.6 ± 2.6
8.81 ± 0.17 | 9.91 ± 0.26 | 18.1 ± 0.85 | 16.9 ± 0.36 | 72 to 74 | – | COc1ccc(C(=O)N2N=C(c3ccc(OC)c4ccccc34)CC2c2cccs2)cc1OC (centres unmarked) [3o, (3,4-Dimethoxyphenyl)(3-(4-methoxynaphthalen-1-yl)-5-(thiophen-2-yl)-4,5-dihydro-1H-pyrazol-1-yl)methanone] | 137 ± 4.7
0.56 ± 0.045 | 3.76 ± 0.19 | 6.81 ± 0.24 | 6.31 ± 0.54 | 74 to 76 | – | COc1ccc2cc(C3=NN(C(=O)c4ccc(OC)c(OC)c4)C(c4cccs4)C3)ccc2c1 (centres unmarked) [3p, (3-(6-((λ1-Oxidanyl)-λ^5-methyl)naphthalen-2-yl)-5-(thiophen-2-yl)-4,5-dihydro-1H-pyrazol-1-yl)(3,4-dimethoxyphenyl)methanone] | 67.1 ± 3.9
5.24 ± 0.13 | 0.43 ± 0.036 | 4.72 ± 0.12 | 4.22 ± 0.13 | 127 to 128 | 12.2 | COc1ccc(C(=O)N2N=C(c3ccc(OC)c(OC)c3)CC2c2cccs2)cc1OC (centres unmarked) [3q, (3,4-Dimethoxyphenyl)(3-(3,4-dimethoxyphenyl)-5-(thiophen-2-yl)-4,5-dihydro-1H-pyrazol-1-yl)methanone] | 41.3 ± 2.6
4.13 ± 0.062 | 1.37 ± 0.055 | 6.2 ± 0.22 | 5.55 ± 0.41 | 104 to 106 | – | COc1ccc(C(=O)N2N=C(c3ccc(C)c(C)c3)CC2c2cccs2)cc1OC (centres unmarked) [3r, (3,4-Dimethoxyphenyl)(3-(3,4-dimethylphenyl)-5-(thiophen-2-yl)-4,5-dihydro-1H-pyrazol-1-yl)methanone] | 52.5 ± 3.2
> 100 | 9.15 ± 0.14 | 124 ± 9.7 | 110 ± 8.1 | 77 to 79 | – | COc1ccc(C(=O)N2N=C(c3ccc(Br)cn3)CC2c2cccs2)cc1OC (centres unmarked) [3t, (3-(5-Bromopyridin-2-yl)-5-(thiophen-2-yl)-4,5-dihydro-1H-pyrazol-1-yl)(3,4-dimethoxyphenyl)methanone] | > 300
– | – | 21.1 ± 2 | 26.5 ± 1.9 | – | – | O=c1cc(N2CCOCC2)oc2c(-c3ccccc3)cccc12 [LY294002, reference compound] | 51.3 ± 1.4
